# Test results: patent publication US12465050B2, “Compositions comprising a pyridine carboxylate herbicide and protoporphyrinogen oxidase (protox) inhibitor herbicides” (priority 2018, dated 2025)
# Columns and labels:
# Format in all cases: in vivo
# [1] = tested on: Viola tricolor (wild pansy); experiment: Greenhouse postemergence herbicidal effect on VIOTR
# From the text: (§1) Greenhouse Trial Methodology—Evaluation of Postemergence Herbicidal Effect
# (§2) Seeds of the desired test plant species were planted in a 90:10% v/v (volume/volume) mixture of PRO-MIX® BX (Premier Tech Horticulture, Quakertown, Pa., USA) and PROFILE® GREENS GRADE™ (Profile Products LLC, Buffalo Grove, Ill., USA) planting mixture, which typically has a pH of 5.2 to 6.2 and an organic matter content of at least 50 percent, in plastic pots with a surface area of 103.2 square centimeters (cm^2). In some aspects or embodiments, to help ensure good germination and healthy plants, a fungicide treatment and/or other chemical or physical treatment was applied. The plants were grown for 7-36 days (d) in a greenhouse with an approximate 14-hour (h) photoperiod which was maintained at about 23° C. during the day and 22° C. during the night. Nutrients and water were added on a regular basis and supplemental lighting was provided with overhead metal halide 1000-Watt lamps as necessary. The plants were employed for testing when they reached the second or third true leaf stage.
# (§3) Emulsifiable concentrates of each of each pyridine carboxylate herbicide (Compound A or Compound B) were prepared at 100 grams acid equivalent per liter (g ae/L). The emulsifiable concentrates also included a safener, cloquintocet mexyl, at 120 grams active ingredient per liter (g ai/L). An aliquot of each emulsifiable concentrate was placed in a 25 mL glass vial and diluted with an aqueous mixture of 1.25% (v/v) ACTIROB® B esterified rapeseed oil (Bayer Crop Science, Research Triangle Park, N.C., USA) or MSO® Concentrate with LECI-TECH® methylated soybean oil (Loveland Products, Loveland, Colo., USA) to obtain concentrated stock solutions at the highest application rate for each herbicide, based upon a 12 milliliter (mL) application volume at a rate of 187 liters per hectare (L/ha). The concentrated stock solutions were further diluted with an aqueous mixture of 1.25% v/v ACTIROB® B or MSO® Concentrate with LECI-TECH® to obtain stock solutions at reduced application rates for each herbicide. Spray solutions of the herbicide combinations (Compound A or Compound B plus PROTOX inhibitor herbicide) were prepared by adding weighed amounts or aliquots of the PROTOX inhibitor herbicides to the stock solutions of Compound A or Compound B to form 12-mL spray solutions in two-way combinations.
# (§4) The spray solutions were applied to the plant material with an overhead Mandel track sprayer equipped with 8002E nozzles calibrated to deliver 187 L/ha over an application area of 0.503 square meters (m^2) at a spray height of 18 inches (43 centimeters (cm)) above the average plant canopy. Control plants were sprayed in the same manner with the solvent blank. All pyridine carboxylate herbicide (component a) application rates are given as “g ae/ha” and all PROTOX inhibitor herbicide (component b) application rates are given as “g ai/ha.”
# (§5) The treated plants and control plants were placed in a greenhouse as described above and watered by sub-irrigation to prevent wash-off of the test compounds. After 20-22 d, the condition of the test plants as compared with that of the control plants was determined visually and scored on a scale of 0 to 100 percent where 0 corresponds to no injury and 100 corresponds to complete kill.
# [2] = tested on: Kochia scoparia (kochia); experiment: Greenhouse postemergence herbicidal effect on KCHSC
# From the text: as §1, §2, §3, §4, §5
# [3] = tested on: Sorghum vulgare (sorghum); experiment: Greenhouse postemergence herbicidal effect on SORVU
# From the text: as §1, §2
# (§6) Emulsifiable concentrates of each of each pyridine carboxylate herbicide (Compound A or Compound B) were prepared at 100 grams acid equivalent per liter (g ae/L). The emulsifiable concentrates also included a safener, cloquintocet mexyl, at 120 grams active ingredient per liter (g ai/L). […]
# as §5
# [4] = tested on: Cyperus esculentus (nutsedge); experiment: Greenhouse postemergence herbicidal effect on CYPES
# From the text: as §1, §2, §6, §5
# [5] = tested on: Zea mays (maize); experiment: Greenhouse postemergence phytotoxicity on crop ZEAMX
# From the text: as §1, §2, §6, §5
# [6] = tested on: Polygonum convolvulus (wild buckwheat); experiment: Greenhouse postemergence herbicidal effect on POLCO
# From the text: as §1, §2, §3, §4, §5
# [7] = tested on: Salsola kali (Russian thistle); experiment: Greenhouse postemergence herbicidal effect on SASKR
# From the text: as §1, §2, §3, §4, §5
# [8] = tested on: Hordeum vulgare (spring barley); experiment: Greenhouse postemergence phytotoxicity on crop HORVS
# From the text: as §1, §2, §3, §4, §5
# [9] = tested on: Chenopodium album L. (common lambsquarters); experiment: Greenhouse postemergence herbicidal effect on CHEAL
# From the text: as §1, §2, §3, §4, §5
# [10] = tested on: Lamium purpureum (purple deadnettle); experiment: Greenhouse postemergence herbicidal effect on LAMPU
# From the text: as §1, §2
# as §3, with “combinations. […]” for “combinations.”
# as §5
# [11] = tested on: Cyanus segetum (cornflower); experiment: Greenhouse postemergence herbicidal effect on CENCY
# From the text: as §1, §2
# as §3, with “combinations. […]” for “combinations.”
# as §5
# [12] = tested on: Stellaria media (chickweed); experiment: Greenhouse postemergence herbicidal effect on STEME
# From the text: as §1, §2
# as §3, with “combinations. […]” for “combinations.”
# as §5
# [13] = tested on: Veronica persica (Persian speedwell); experiment: Greenhouse postemergence herbicidal effect on VERPE
# From the text: as §1, §2
# as §3, with “combinations. […]” for “combinations.”
# as §5
# [14] = tested on: Veronica hederifolia (ivy-leaved speedwell); experiment: Greenhouse postemergence herbicidal effect on VERHE
# From the text: as §1, §2
# as §3, with “combinations. […]” for “combinations.”
# as §5
# [15] = Compound A 7.5, Oxyfluorfen 0 g/ha
# [16] = Compound A 10, Oxyfluorfen 0 g/ha
# [17] = Compound A 15, Oxyfluorfen 0 g/ha
# [18] = Compound A 7.5, Carfentrazone-ethyl 0 g/ha
# [19] = Compound A 7.5, Pyraclonil 0 g/ha
# [20] = Compound A 7.5, Pyraflufen-ethyl 0 g/ha
# [21] = Compound A 10, Carfentrazone-ethyl 0 g/ha
# [22] = Compound A 10, Pyraclonil 0 g/ha
# [23] = Compound A 10, Pyraflufen-ethyl 0 g/ha
# [24] = Compound A 7.5, Saflufenacil 0 g/ha
# [25] = Compound A 10, Saflufenacil 0 g/ha
compound,measurement,setting,value
"N#CCOC(=O)c1nc(-c2ccc3cc[nH]c3c2F)c(F)c(N)c1Cl [Compound A, cyanomethyl 4-amino-3-chloro-5-fluoro-6-(7-fluoro-1H-indol-6-yl)pyridine-2-carboxylate]","% visual injury, Obs","[1]; Compound A 7.5, Bifenox 0 g/ha",45%
same,"% visual injury, Obs",[1]; [15],13%
same,"% visual injury, Obs","[1]; Compound A 10, Bifenox 0 g/ha",15%
same,"% visual injury, Obs",[1]; [16],15%
same,"% visual injury, Obs",[1]; [17],15%
same,"% visual injury, Obs","[2]; Compound A 7.5, Bifenox 0 g/ha",63%
same,"% visual injury, Obs",[2]; [18],50%
same,"% visual injury, Obs",[2]; [15],63%
same,"% visual injury, Obs",[2]; [19],50%
same,"% visual injury, Obs",[2]; [20],70%
same,"% visual injury, Obs","[2]; Compound A 10, Bifenox 0 g/ha",70%
same,"% visual injury, Obs",[2]; [21],58%
same,"% visual injury, Obs",[2]; [16],65%
same,"% visual injury, Obs",[2]; [22],58%
same,"% visual injury, Obs",[2]; [23],70%
same,"% visual injury, Obs",[2]; [17],63%
same,"% visual injury, Obs",[3]; [24],0%
same,"% visual injury, Obs",[3]; [25],0%
same,"% visual injury, Obs",[4]; [24],30%
same,"% visual injury, Obs",[4]; [25],8%
same,"% visual injury, Obs",[5]; [24],0%
same,"% visual injury, Obs",[5]; [25],0%
same,"% visual injury, Obs",[6]; [18],70%
same,"% visual injury, Obs",[6]; [15],65%
same,"% visual injury, Obs",[6]; [19],70%
same,"% visual injury, Obs",[6]; [20],30%
same,"% visual injury, Obs",[6]; [21],78%
same,"% visual injury, Obs",[6]; [16],78%
same,"% visual injury, Obs",[6]; [22],78%
same,"% visual injury, Obs",[6]; [23],43%
same,"% visual injury, Obs",[6]; [17],85%
same,"% visual injury, Obs",[7]; [18],45%
same,"% visual injury, Obs",[7]; [15],50%
same,"% visual injury, Obs",[7]; [19],45%
same,"% visual injury, Obs",[7]; [20],60%
same,"% visual injury, Obs",[7]; [21],60%
same,"% visual injury, Obs",[7]; [16],60%
same,"% visual injury, Obs",[7]; [22],60%
same,"% visual injury, Obs",[7]; [23],63%
same,"% visual injury, Obs",[7]; [17],63%
same,"% visual injury, Obs",[8]; [18],8%
same,"% visual injury, Obs",[8]; [15],0%
same,"% visual injury, Obs",[8]; [19],8%
same,"% visual injury, Obs",[8]; [20],0%
same,"% visual injury, Obs",[8]; [21],0%
same,"% visual injury, Obs",[8]; [16],0%
same,"% visual injury, Obs",[8]; [22],0%
same,"% visual injury, Obs",[8]; [23],0%
same,"% visual injury, Obs",[8]; [17],0%
same,"% visual injury, Obs",[9]; [19],70%
same,"% visual injury, Obs",[9]; [20],75%
same,"% visual injury, Obs",[9]; [22],83%
same,"% visual injury, Obs",[9]; [23],80%
same,"% visual injury, Obs",[10]; [15],68%
same,"% visual injury, Obs",[10]; [16],73%
same,"% visual injury, Obs",[10]; [17],73%
same,"% visual injury, Obs",[11]; [15],75%
same,"% visual injury, Obs",[11]; [16],78%
same,"% visual injury, Obs",[11]; [17],80%
same,"% visual injury, Obs",[12]; [15],85%
same,"% visual injury, Obs",[12]; [16],88%
same,"% visual injury, Obs",[12]; [17],89%
same,"% visual injury, Obs",[13]; [15],78%
same,"% visual injury, Obs",[13]; [16],90%
same,"% visual injury, Obs",[13]; [17],93%
same,"% visual injury, Obs",[14]; [15],68%
same,"% visual injury, Obs",[14]; [16],73%
same,"% visual injury, Obs",[14]; [17],75%
